Measured values taken from ChEMBL document CHEMBL3046323, “Photosynthetic Electron Transport Inhibitory and Herbicidal Activities of 2-(N-Acylbenzylamino)-4-methyl-6-fluoroalkyl-1, 3, 5-triazine Derivatives” (J Pestic Sci, 2001).

Tests used:
Persicaria longiseta [1] = test: Herbicidal activity against Persicaria longiseta at 4 kg/ha treated as soil application at pre-emergence after 3 weeks; format: functional
[2] = tested on: Amaranthus blitum subsp. oleraceus; test: Herbicidal activity against Amaranthus blitum subsp. Oleraceus at 4 kg/ha treated as soil application at pre-emergence after 3 weeks; format: functional
Echinochloa oryzicola = test: Herbicidal activity against Echinochloa oryzicola at 4 kg/ha treated as foliar application at post-emergence after 3 weeks; format: functional
Persicaria longiseta [3] = test: Herbicidal activity against Persicaria longiseta at 4 kg/ha treated as paddy application at pre-emergence after 3 weeks; format: functional
Chenopodium album [4] = test: Herbicidal activity against Chenopodium album at 4 kg/ha treated as soil application at pre-emergence after 3 weeks; format: functional
[5] = tested on: Echinochloa crus-galli var. crus-galli; test: Herbicidal activity against Echinochloa crus-galli var. crus-galli at 4 kg/ha treated as soil application at pre-emergence after 3 weeks; format: functional
Digitaria ciliaris [6] = test: Herbicidal activity against Digitaria ciliaris at 4 kg/ha treated as paddy application at pre-emergence after 3 weeks; format: functional
[7] = tested on: Echinochloa crus-galli var. crus-galli; test: Herbicidal activity against Echinochloa crus-galli var. crus-galli at 4 kg/ha treated as paddy application at pre-emergence after 3 weeks; format: functional
Pontederia vaginalis = test: Herbicidal activity against Monochoria vaginalis at 4 kg/ha treated as foliar application at post-emergence after 3 weeks; format: functional
Digitaria ciliaris [8] = test: Herbicidal activity against Digitaria ciliaris at 4 kg/ha treated as soil application at pre-emergence after 3 weeks; format: functional
Chenopodium album [9] = test: Herbicidal activity against Chenopodium album at 4 kg/ha treated as paddy application at pre-emergence after 3 weeks; format: functional
[10] = tested on: Schoenoplectiella juncoides; test: Herbicidal activity against Schoenoplectiella juncoides var. Hotarui Ohwi at 4 kg/ha treated as foliar application at post-emergence after 3 weeks; format: functional
[11] = Inhibition of photosynthetic electron transport in Spinacia oleracea leaf thylakoids assessed as oxygen formation
Rotala indica = test: Herbicidal activity against Rotala indica at 4 kg/ha treated as foliar application at post-emergence after 3 weeks; format: functional

| Structure (SMILES) | Activity (Persicaria longiseta [1]) [%] | Activity [2] [%] | Activity (Echinochloa oryzicola) [%] | Activity (Persicaria longiseta [3]) [%] | Activity (Chenopodium album [4]) [%] | Activity [5] [%] | Activity (Digitaria ciliaris [6]) [%] | Activity [7] [%] | Activity (Pontederia vaginalis) [%] | Activity (Digitaria ciliaris [8]) [%] | Activity (Chenopodium album [9]) [%] | Activity [10] [%] | pI50 [11] | Activity (Rotala indica) [%] |
| --- | --- | --- | --- | --- | --- | --- | --- | --- | --- | --- | --- | --- | --- | --- |
| CCC(=O)N(Cc1ccccc1)c1nc(C)nc(C(F)(F)F)n1 | 91 | 91 | 0 | 100 | 91 | 76 | 76 | 76 | 26 | 91 | 100 | 0 |  |  |
| Cc1nc(NCc2ccc(Cl)cc2)nc(C(F)(F)F)n1 |  |  | 91 | 91 | 100 | 100 | 100 | 100 | 100 | 100 | 91 | 100 | 6.97 | 91 |
| Cc1nc(NCc2ccccc2)nc(C(F)(F)F)n1 |  |  | 76 | 76 | 100 | 76 | 91 | 100 | 91 | 91 | 76 | 91 |  | 76 |
| Cc1nc(NCc2ccc(Cl)cc2)nc(C(F)F)n1 |  |  |  |  |  |  |  |  |  |  |  |  | 6.62 |  |
| CCCc1nc(C)nc(N(C=O)Cc2ccc(Cl)cc2)n1 | 100 | 76 | 0 | 100 | 91 | 51 | 1 | 100 | 76 | 91 | 100 | 1 |  | 100 |
| Cc1nc(N(C=O)Cc2ccccc2)nc(C(F)(F)F)n1 | 91 | 76 | 0 | 100 | 100 | 76 | 76 | 76 | 26 | 76 | 100 | 0 |  |  |
| CC(=O)N(Cc1ccccc1)c1nc(C)nc(C(F)(F)F)n1 |  |  | 100 | 51 | 100 | 0 | 0 | 76 | 100 | 1 | 100 | 100 |  |  |
| CCCC(=O)N(Cc1ccccc1)c1nc(C)nc(C(F)(F)F)n1 | 51 | 76 | 0 | 1 | 76 | 51 | 51 | 100 | 51 | 51 | 100 | 0 |  | 26 |
| Cc1nc(N(Cc2ccccc2)C(=O)C(C)(C)C)nc(C(F)(F)F)n1 |  |  |  |  |  | 26 |  |  |  | 51 |  |  |  |  |
| Cc1nc(C(F)F)nc(N(C=O)Cc2ccc(Cl)cc2)n1 | 100 | 100 | 91 | 100 | 100 | 100 | 76 | 76 | 100 | 91 | 100 | 76 |  | 100 |
| Cc1nc(N(C=O)Cc2ccc(Cl)cc2)nc(C(F)(F)F)n1 | 100 | 91 | 91 | 100 | 100 | 100 | 91 | 100 | 100 | 91 | 100 | 91 |  | 100 |
| Cc1nc(N(C=O)Cc2ccc(Cl)cc2)nc(C(F)(F)C(F)(F)F)n1 | 100 | 100 | 76 | 100 | 91 | 100 | 76 | 100 | 100 | 100 | 100 | 100 |  | 100 |
| CCNc1nc(Cl)nc(NC(C)C)n1 [ATRAZINE] |  |  | 91 | 91 |  |  |  |  | 100 |  | 91 | 76 |  |  |
| CCNc1nc(Cl)nc(NCC)n1 [SIMAZINE] |  | 91 |  |  | 91 | 26 |  |  |  | 51 |  |  | 6.28 |  |
